Measurements published in PMC7168207, “Dibasic Derivatives of Phenylcarbamic Acid as Prospective Antibacterial Agents Interacting with Cytoplasmic Membrane” (Antibiotics, 2020).
Several values for one entry are separate records, joined by “and”; a condition that tells them apart may be missing. Equal values may be shown once. Read-outs that look alike come from different tables or passages of the source.

Assays:
[1] = system: vancomycin-resistant enterococci VRE 342B; test: MIC, broth microdilution; assay type: cell-based, Enterococcus faecalis; conditions: VRE1 = VRE 342B; for MIC: read-out: MICs
Experimental: (§1) The modified broth microdilution method was used for in vitro evaluation of minimum inhibitory concentration. A small portion of bacterial colony cultivated overnight onto nutrient agar (Oxoid, Basingstoke, UK) with 5% bovine blood was suspended in sterile phosphate-buffered saline to get cell density 0.5 McFarland. This inoculum was diluted to reach the final concentration of bacterial cells 5 × 10^5 CFU/mL in the wells. […] For plates with staphylococci, cation adjusted Mueller–Hinton (CaMH) broth (Oxoid) was used; enterococci were cultivated in brain heart infusion (BHI, Oxoid). […] A drug-free control and a sterility control were included. Inoculated plates were incubated in aerobic atmosphere at 37 °C overnight. […] After evaluation of MICs, 10 µL of aliquots from the wells were put onto Mueller–Hinton agar. The agar plates were cultivated at 37 °C for 24 h. The minimum bactericidal concentration (MBC) was defined as the lowest concentration of the compound that killed 99.9% of the bacteria compared to the starting inoculum.

E. faecalis ATCC 29212 = test: MIC, broth microdilution; assay type: cell-based, Enterococcus faecalis; conditions: EF = E. faecalis ATCC 29213
Experimental: as §1

[2] = system: vancomycin-resistant enterococci VRE 725B; test: MIC, broth microdilution; assay type: cell-based, Enterococcus faecalis; conditions: VRE3 = VRE 725B; for MIC: read-out: MICs
Experimental: as §1

[3] = system: vancomycin-resistant enterococci VRE 368; test: MIC, broth microdilution; assay type: cell-based, Enterococcus faecalis; conditions: VRE2 = VRE 368; for MIC: read-out: MICs
Experimental: as §1

[4] = system: human monocytic leukemia THP-1 cells; test: in vitro antiproliferative assay (WST-1); assay type: cell-based; conditions: THP-1 cells, WST-1, 24 h, read-out: Tox IC50
Experimental: The preliminary in vitro screening of the antiproliferative effect of the investigated compounds was performed using a Water Soluble Tetrazolium salts-1 (WST-1) assay kit and a human monocytic leukemia THP-1 cell line by means of the method described recently. The principle of the WST-1 assay kit is the […] mitochondrial dehydrogenases by antiproliferative compounds. The activity of this enzyme directly correlates with the number of metabolically active cells in the culture. The antiproliferative effect was evaluated as the IC50 value (the concentration of the compound causing 50% inhibition of cell proliferation).
Human monocytic leukemia THP-1 cells were used for in vitro antiproliferative assay. Cells were obtained from the European Collection of Cell Cultures (ECACC, Salisbury, UK) and routinely cultured in RPMI (Roswell Park Memorial Institute) 1640 medium supplemented with 10% fetal bovine serum, 2% L-glutamine, 1% penicillin, and streptomycin at 37 °C with 5% CO2. Cells were passaged at approximately one-week intervals. The antiproliferative activity of the compounds was determined using a Water Soluble Tetrazolium Salts-1 (WST-1, 2-(4-iodophenyl)-3-(4-nitrophenyl)-5-(2,4-disulfophenyl)-2H-tetrazolium) assay kit (Roche Diagnostics, Mannheim, Germany) according to the manufacturer’s instructions. The tested compounds were dissolved in DMSO and added in various compound concentrations to the cell suspension in the culture RPMI 1640 medium. The maximum concentration of DMSO in the assays never exceeded 0.1%. Subsequently, the cells were incubated at 37 °C with 5% CO2 for 24 h. For WST-1 assays, cells were seeded into 96-well plates (5 × 10^4 cells/well in 100 μL culture medium) in triplicate in serum-free RPMI 1640 medium, and measurements were taken 24 h after the treatment with the compounds. The median inhibition concentration values, IC50, were deduced through the production of a dose-response curve. All data were evaluated using GraphPad Prism 5.00 software (GraphPad Software, San Diego, CA, USA).

[5] = system: methicillin-resistant S. aureus SA 630; test: MIC, broth microdilution; assay type: cell-based, Staphylococcus aureus; conditions: MRSA2 = SA 630; for MIC: read-out: MICs
Experimental: as §1

[6] = system: methicillin-resistant S. aureus SA 3202; test: MIC, broth microdilution; assay type: cell-based, Staphylococcus aureus; conditions: MRSA3 = SA 3202; for MIC: read-out: MICs
Experimental: as §1

[7] = system: methicillin-resistant S. aureus 63718; test: MIC, broth microdilution; assay type: cell-based, Staphylococcus aureus; conditions: MRSA1 = S. aureus 63718; for MIC: read-out: MICs
Experimental: as §1

S. aureus ATCC 29213 = test: MIC, broth microdilution; assay type: cell-based, Staphylococcus aureus
Experimental: as §1

[8] = system: S. aureus ATCC 29213 biofilm; test: biofilm susceptibility / eradication of preformed biofilm (MTT); assay type: cell-based, Staphylococcus aureus; conditions: for MBEC80 (minimum biofilm eradication concentration): 80% reduction of metabolic activity of preformed biofilm, 24 h
Experimental: (§2) The ability of compounds 1f, 1g, and 1h to inhibit biofilm growth and destroy the matured biofilm of S. aureus ATCC 29213 was investigated. The inhibitory activity was studied by the method with crystal violet. The activity to disrupt matured biofilm was evaluated as a decrease of metabolic activity using the MTT assay.
Biofilms were grown as described above but without the presence of the compounds. After 48 h of incubation at 37 °C, the contents of the wells were removed, and the plates were washed three times by sterile PBS. After washing, 100 µL of tested compounds in CaMH were added to the wells. […] A growth control containing 2.5% of DMSO in CaMH was included. The plates were incubated at 37 °C for 24 h, then the solutions of compounds were removed, and the plates were gently washed three times by sterile PBS. Bacterial viability was analyzed using 100 µL of 0.05 mg/mL MTT (3-(4,5-dimethylthiazol-2-yl)- 2,5-diphenyltetrazolium bromide) in PBS in each well. The plates with MTT were incubated at 37 °C for 1–2 h in darkness, until the blue formazan crystals appeared. MTT solution was removed and the plates were washed once by PBS. Crystals of formazan were dissolved using 17% sodium dodecysulphate in 40% dimethylformamid. The absorbance at 570 nm was measured and the percentage of eradication was counted according to the equation (3) % of eradication = 100 − OD570S/OD570C × 100 where OD570S is the absorbance of the sample at 570 nm and OD570C is the absorbance of the growth control at 570 nm. The minimum biofilm eradication concentration was the lowest concentration of the compound, which reduced the metabolic activity of the biofilm by 80% compared to the growth control. The experiment was made in duplicate and repeated at least three times.

[9] = system: S. aureus ATCC 29213 biofilm; test: biofilm inhibition assay (crystal violet); assay type: cell-based, Staphylococcus aureus; conditions: ≥80% inhibition of biofilm formation; for MBIC80 (minimum biofilm inhibitory concentration): 48 h
Experimental: as §2
The plates were inoculated by inoculum of S. aureus ATCC 29213 grown in TSB + 2% glucose to exponential phase. Before the inoculation of the plate, the original inoculum was diluted to 1 McFarland and then 1:100 in fresh TSB + 2% glucose, to reach the final concentrations in the wells of […]. […] The plates were incubated at 37 °C for 48 h. After incubation, the contents of the wells were removed, and the plates were washed three times by sterile PBS. After drying, 125 μL of 0.5% crystal violet was added to each well and the plates were stained at room temperature for 20 min. Then the dye was removed, and the plates were washed three times by sterile PBS. The colored biofilm was detached from the wells using 33% solution of acetic acid. The absorbance at 595 nm was measured. As a blank, a non-inoculated plate treated in the same way was used. […] The minimum biofilm inhibitory concentration was the lowest concentration of the compounds, which inhibited the growth of 80% bacteria compared to the growth control. The experiment was made in duplicate and repeated at least three times.

VRE 368 = test: synergy with antibiotics (FIC index, checkerboard); assay type: cell-based, Enterococcus faecalis; conditions: Enterococcus, VRE, VRE 368; tested compound/antibiotic; read-out: MIC of each antibacterial drug alone observed in the synergy experiment
Excerpt: (§3) Representatives from various classes were chosen in order to study the potential difference in synergistic activity according to the diverse mechanisms of action and resistance of these drugs. The method of minimal fractional inhibitory concentration (FIC) index (FICI) in a microtitration plate was used. FICI ≤ 0.5 means synergy; 0.5 < FICI < 1 means additivity; 1 ≤ FICI < 4 means indifference; and FICI ≥ 4 means antagonism.
(§4) For synergy effect study, a method of fractional inhibitory concentration was used. […] Raw H was used for the evaluation of MIC(A); column 12 was used for evaluation of MIC(B). The plate was inoculated by the bacterial suspension to reach final concentration of 5 × 10^5 CFU/mL in the wells. The fractional inhibitory concentration (FIC) index was calculated using the concentrations in the first nonturbid (clear) well found in each row and column along the turbidity/nonturbidity interface. To interpret the combined effect, the lowest FICI was used. A ΣFIC ≤ 0.5 means synergy; 0.5 < ΣFIC < 1 means additivity; 1 ≤ ΣFIC < 4 means indifference; and ΣFIC ≥ 4 means antagonism. The tests were made in duplicate, and the results were averaged.

VRE 342B = test: synergy with antibiotics (FIC index, checkerboard); assay type: cell-based, Enterococcus faecalis; conditions: VRE 342B
Excerpt: as §3, §4

VRE 725B = test: synergy with antibiotics (FIC index, checkerboard); assay type: cell-based, Enterococcus faecalis; conditions: Enterococcus
Excerpt: as §3
The used VRE strains were isolated from American crows by Oravcova et al., and their genetic profiles were characterized. All the VRE strains were carrying genes vanA, tetM, and ermB. Strains VRE 368 and VRE 725B carried gene aac, which provided acquired aminoglycoside resistance.
as §4

[10] = Enterococcus faecalis, ATCC 29212 / ATCC 29213
[11] = Staphylococcus aureus, ATCC29213, SA = S. aureus ATCC 29213, read-out: MICs
[12] = Staphylococcus aureus, ATCC29213, Table 7, planktonic cells of S. aureus ATCC 29213, read-out: MIC

Molecule	MIC ([1]; Enterococcus)	MIC (E. faecalis ATCC 29212; [10])	MIC ([2]; Enterococcus)	MIC ([3]; Enterococcus)	IC50 ([4]; Homo sapiens, THP-1, 24 h)	MIC ([5]; Staphylococcus aureus)	MIC ([6]; Staphylococcus aureus)	MIC ([7]; Staphylococcus aureus)	MIC (S. aureus ATCC 29213; [11])	MIC (S. aureus ATCC 29213; [12])	MBEC80 (minimum biofilm eradication concentration) [8]	MBIC80 (minimum biofilm inhibitory concentration) [9]	also measured
CCCCCCCCCCCCCCCC[N+](C)(C)Cc1ccccc1 [CTC, cetalkonium chloride, reference compound]	0.5 µg/mL and 1.26 µM	1 µg/mL and 2.53 µM	0.5 µg/mL and 1.26 µM	0.5 µg/mL and 1.26 µM	1.29 ± 0.07 µM	0.5 µg/mL and 1.26 µM	1 µg/mL and 2.53 µM	0.25 µg/mL and 0.63 µM	0.25 µg/mL and 0.63 µM	0.25 µg/mL	>256 µg/mL	0.25 µg/mL	activity on preformed biofilm [8]: did not show any activity on preformed biofilm
CNC(C)C1CCC(N)C(OC2C(N)CC(N)C(OC3OCC(C)(O)C(NC)C3O)C2O)O1 (centres unmarked) [GEN, gentamicin, reference compound]	–	–	–	–	–	–	–	–	–	–	–	–	MIC (VRE 368): 64 µg/mL; MIC (VRE 342B; Enterococcus, tested compound/antibiotic, read-out: MIC of each antibacterial drug alone observed in the synergy experiment): 32 µg/mL; concentrations of the tested compound/clinically used antibiotic providing additivity or synergy (VRE 342B; in the combination of that line): 8 µg/mL; MIC (VRE 725B): > 2000 µg/mL
CCN(CC)CCOC(=O)c1ccc(N)cc1 [PRC, procaine, reference compound]	> 256 µg/mL and > 1080 µM	> 256 µg/mL and > 1080 µM	> 256 µg/mL and > 1080 µM	> 256 µg/mL and > 1080 µM	> 300 µM	> 256 µg/mL and > 1080 µM	> 256 µg/mL and > 1080 µM	> 256 µg/mL and > 1080 µM	> 256 µg/mL and > 1080 µM	> 256 µg/mL	>256 µg/mL	>256 µg/mL	–
CCCCNc1ccc(C(=O)OCCN(C)C)cc1 [TEC, tetracaine, reference compound]	> 256 µg/mL and > 968 µM	> 256 µg/mL and > 968 µM	> 256 µg/mL and > 968 µM	> 256 µg/mL and > 968 µM	224 ± 6.52 µM	> 256 µg/mL and > 968 µM	> 256 µg/mL and > 968 µM	> 256 µg/mL and > 968 µM	> 256 µg/mL and > 968 µM	> 256 µg/mL	>256 µg/mL	>256 µg/mL	–
carbethopendecinium bromide [CRB, reference compound]	–	–	–	–	–	–	–	–	–	–	64 µg/mL	0.25 µg/mL	MICs [1]: 0.5 µg/mL; MIC [1]: 1.18 µM; MIC (E. faecalis ATCC 29212): 1.18 µM; MICs (E. faecalis ATCC 29212): 0.5 µg/mL; MICs [2]: 0.5 µg/mL; MIC [2]: 1.18 µM; MICs [3]: 0.25 µg/mL; MIC [3]: 0.59 µM; IC50 [4]: 1.73 ± 0.08 µM; MICs [5]: 0.5 µg/mL; MIC [5]: 1.18 µM; MICs [6]: 2 µg/mL; MIC [6]: 4.73 µM; MICs [7]: 0.25 µg/mL; MIC [7]: 0.59 µM; MICs (S. aureus ATCC 29213; SA = S. aureus ATCC 29213): 0.25 µg/mL; MIC (S. aureus ATCC 29213; SA = S. aureus ATCC 29213, read-out: MICs): 0.59 µM; MIC (S. aureus ATCC 29213; Table 7, planktonic cells of S. aureus ATCC 29213): 0.25 µg/mL; minimum biofilm inhibitory concentration relative to MIC against planktonic cells [9]: comparable to its MIC
